# Measured values: patent US12590134B2, “GLP-1 agonist polypeptide compound and salt thereof, synthesis method therefor and use thereof” (Sinopep-Allsino Biopharmaceutical Co., Ltd., priority 2020, dated 2026)
# Legend:
# [1] = test system: db/db mice; assay: Glucose lowering experiment, random blood glucose of db/db mice after single subcutaneous injection; type: in vivo
# Procedure: (§1) After DB/DB mice with high blood glucose were acclimated for 5-7 days, a non-fasting random blood glucose level was determined; after fasting for 12 h, a fasting blood glucose level was determined by a rapid blood glucose meter. […] Mice in each test drug group and each control group received single subcutaneous injection of each test drug or a control solution respectively, and the mice in the model control group received single subcutaneous injection of PBS buffer solution; and the experiment grouping and dosage setting conditions were shown in Table 1:
# Blood glucose level: the blood was taken from the tail tip of the mice to measure the blood glucose level with a fast blood glucose meter and blood glucose test strips. […]
# The glucose lowering effect of the test article was evaluated by BG (mmol/L) or AUC (mmol/L·min).
# (§2) T test was used for comparison between two groups. One-way ANOVA was used for comparison among three or more groups. If there was a significant difference in F value, multiple comparisons should be performed after ANOVA analysis. All data analyses were performed with SPSS 17.0. If p<0.05, it was considered a significant difference.
# [2] = Effect on random body weight of db/db mice after single subcutaneous injection; type: in vivo; parameters: unit not given here
# Procedure: as §1
# Body weight: after grouping the animals, the body weight was measured once a day at a fixed time period
# as §2
substance,measurement,setting,value
Semaglutide,Random blood glucose,"[1]; 30 nmol/kg SC group, baseline at grouping before administration, X ± s, n = 8",25.8 ± 3.9 mmol/L
same,"Blood glucose at different time after administration, 0 h","[1]; 30 nmol/kg SC single dose, 0 h",26.8 ± 3.2 mmol/L
same,"Blood glucose at different time after administration, 2 h","[1]; 30 nmol/kg SC single dose, 2 h",14.9 ± 4.1 mmol/L
same,"Blood glucose at different time after administration, 4 h","[1]; 30 nmol/kg SC single dose, 4 h",13.2 ± 3.2 mmol/L
same,"Blood glucose at different time after administration, 6 h","[1]; 30 nmol/kg SC single dose, 6 h",13.3 ± 3.7 mmol/L
same,"Blood glucose at different time after administration, 10 h","[1]; 30 nmol/kg SC single dose, 10 h",11.5 ± 3.7 mmol/L
same,"Blood glucose at different time after administration, 24 h","[1]; 30 nmol/kg SC single dose, 24 h",12.6 ± 5.6 mmol/L
same,"Blood glucose at different time after administration, 36 h","[1]; 30 nmol/kg SC single dose, 36 h",21.1 ± 4.1 mmol/L
same,"Blood glucose at different time after administration, 48 h","[1]; 30 nmol/kg SC single dose, 48 h",21.3 ± 5.6 mmol/L
same,"Blood glucose at different time after administration, 56 h","[1]; 30 nmol/kg SC single dose, 56 h",28.3 ± 4.8 mmol/L
same,"Blood glucose at different time after administration, 72 h","[1]; 30 nmol/kg SC single dose, 72 h",32.3 ± 1.9 mmol/L
same,"Random body weight at different time after administration, Day 0","[2]; 30 nmol/kg SC single dose, Day 0",41.62 ± 1.56
same,"Random body weight at different time after administration, Day 1","[2]; 30 nmol/kg SC single dose, Day 1",38.86 ± 1.37
same,"Random body weight at different time after administration, Day 2","[2]; 30 nmol/kg SC single dose, Day 2",40.56 ± 1.51
same,"Random body weight at different time after administration, Day 3","[2]; 30 nmol/kg SC single dose, Day 3",41.03 ± 1.72
same,"Random body weight at different time after administration, Day −1","[2]; 30 nmol/kg group, Day −1 (before administration)",40.24 ± 1.44
same,"Random body weight at different time after administration, Day −2","[2]; 30 nmol/kg group, Day −2 (before administration), X ± s, n = 8",41.37 ± 1.64
